Source: patent publication US20240268421A1, “FOOD COLOURING AGENTS” (v2food Pdy Ltd, priority 2020, published 2024)

Tests used:
[1] = tested on: Caco-2/HT29-MTX-E12 transwell model; assay: Ferritin formation in intestinal barrier model (bioavailability of iron); type: cell-based, Human
Experimental: Human Caco-2(enterocytes) and HT29-MTX-E12 (goblet) cells grown on a semi-permeable membrane comprise the intestinal barrier model. The co-cultures were grown on transwells as described below: • Caco-2 cells and HT29-MTX-E12 cells flasks were passaged when ˜90% confluent. • Cells were counted using a haemocytometer (or Coulter counter) to determine cell number/mL. • 0.6 mL growth media (no cells) was added to basolateral chamber of transwells. • 0.2 mL Caco-2/HT29-MTX-E12 cell solution was carefully added into apical chamber to achieve 3.6×104 Caco-2 and 4×10^3 HT29-MTX cells. • Co-cultures were grown on transwells for 21 days with media changed every 2-3 days. • At 21 days transepithelial electric resistance (or TEER) was measured using a Millicell voltohmeter from the apical to basolateral chamber (FIG. 1). These measurements indicate integrity of cell layer ensuring the cells are polarised and an intact barrier is ready for experimentation. […] Treatments were removed, replaced with HBSS, and incubated overnight. • After 16-18 hours cells (on apical side) were washed with PBS before trypsin was applied to remove cells from transwell membranes. • Cells were collected by centrifuging for 5 minutes. • Abcam ferritin assay was conducted according to manufacturer's instructions.
Results from the ferritin assay were analysed for significant differences using unpaired t tests. Differences were deemed significant when P<0.05. All statistical analyses were performed using GraphPad Prism 5 software.
All samples treatments were performed in the presence of 80 μM ascorbic acid.

[2] = Heating of phycoerythrin extracts, colour change visualised; type: physicochemical
Experimental: First, the crude, homogenised phycoerythrin, before clarification, was heated at 95° C. for 5 min and the colour change visualised.
(§1) Therefore, to gain a precise measurement of the thermal denaturation temperature of phycoerythrin, differential scanning fluorometry (DSF) was undertaken by heating 100 uL of clarified phycoerythrin from 25-95° C. by increasing the temperature by 0.5° C./10 sec.
Thermal denaturation of each Phycoerythrin sample (a)-(d) was undertaken. The results are depicted in FIG. 4.

[3] = Differential scanning fluorometry (DSF) thermal denaturation of clarified phycoerythrin; type: physicochemical; settings: heated 25-95° C. at 0.5° C./10 sec
Experimental: as §1

[4] = Iron binding by fluorescence emission scan; settings: 1 mg/mL protein, 0-32 mM iron chloride, excitation 498 nm
Experimental: Phycoerythrin extract from Example 1 (extraction included ultrasound treatment) was dissolved at a concentration of 2 mg/mL in 20 mM sodium phosphate buffer, pH 7 containing 0.02% sodium azide. Iron (II) chloride was dissolved in the same buffer at an initial concentration of 100 mM. The dissolved phycoerythrin extract was mixed 1:1 with a concentration series of iron chloride to give a final protein concentration of 1 mg/mL and final iron chloride concentrations of 0, 0.25, 0.5, 1, 2, 4, 8, 16 and 32 mM.
A fluorescence emission scan from 515-700 nm using an excitation wavelength of 498 nm was then performed on all samples using a Thermofisher Varioskan Flash (Instrument version 4.00.52). R-phycoerythrin has an emission maximum of 575 nm and therefore if iron binding occurs with the linear tetrapyrrole moiety of the protein, a change in fluorescence will be observed.

[5] = 25 μM Fe solutions, with 4 mg/mL phycoerythrin, 80 μM ascorbic acid
[6] = 25 μM Fe solutions, with 8 mg/mL phycoerythrin, 80 μM ascorbic acid
[7] = 25 μM Fe solutions, without phycoerythrin, 80 μM ascorbic acid
[8] = 25 μM iron, co-treatment with 4 or 8 mg/mL phycoerythrin
[9] = 50 μM Fe solutions, with 4 mg/mL phycoerythrin, 80 μM ascorbic acid
[10] = 50 μM Fe solutions, with 8 mg/mL phycoerythrin, 80 μM ascorbic acid
[11] = 50 μM Fe solutions, without phycoerythrin, 80 μM ascorbic acid

Compound | Ferritin [1, 5] | Ferritin [1, 6] | Ferritin [1, 7] | Ferritin production compared to cells only treated with the iron solution [1, 8] | Ferritin [1, 9] | Ferritin [1, 10] | Ferritin [1, 11] | Ferritin production compared to cells only treated with the iron solution ([1]; 50 μM iron, co-treatment with 4 mg/mL phycoerythrin) | Colour change upon heating ([2]; 60° C. and 70° C. for 1 hour) | Colour change upon heating ([2]; crude, homogenised, before clarification, 95° C. for 5 min) | Thermal denaturation temperature where phycoerythrin loses its fluorescence [3] | Change of fluorescence emission with iron [4] | Ferritin ([1]; No Fe, 4 mg/mL phycoerythrin (section of 25 μM Fe solutions)) | Ferritin ([1]; No Fe, 8 mg/mL phycoerythrin (section of 25 μM Fe solutions)) | Ferritin ([1]; No Fe, 8 mg/mL phycoerythrin (section of 50 μM Fe solutions)) | Ferritin production compared to treatment with iron solutions ([1]; only 4 mg/mL phycoerythrin, no added iron) | Ferritin production compared to treatment with ferric chloride ([1]; only 8 mg/mL phycoerythrin, no added iron)
[Cl][Fe]([Cl])[Cl] [Fe (III) chloride, Iron (III) chloride] | 12.7 ± 0.9 ng/mL | 12.7 ± 1.1 ng/mL | 3.3 ± 0.5 ng/mL | significantly improved ferritin production | 13.0 ± 3.1 ng/mL | 1.8 ± 0.6 ng/mL | 1.7 ± 0.8 ng/mL | significantly improved ferritin production | – | – | – | – | – | – | – | – | –
[Cl][Fe][Cl] [Fe (II) chloride, Iron (II) chloride] | 15.8 ± 1.7 ng/mL | 13.9 ± 1.8 ng/mL | 4.4 ± 1.0 ng/mL | significantly improved ferritin production | 10.1 ± 3.5 ng/mL | 16.0 ± 5.9 ng/mL | 5.2 ± 1.6 ng/mL | – | – | – | – | – | – | – | – | – | –
phycoerythrin | – | – | – | – | – | – | – | – | no colour change | turned from red to brown | 77 °C | decrease in phycoerythrin fluorescence with increasing iron concentration | 12.2 ± 0.3 ng/mL | 7.5 ± 1.6^ ng/mL | 2.5 ± 0.4 ng/mL | significantly increased ferritin production | significantly increased ferritin
